In the supplement of paper PMC10307832:

What was measured:
Test in all cases: relative viability (nuclei count vs DMSO), 5 days (fraction); higher = more cells survive
NCI-H2023 = test system: NCI-H2023
Summary of the method: (§1)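 Values are medians from duplicate plates. Each reflects relative viability, defined as the nuclei count of treated wells over that of vehicle wells. Lung cancer cell lines in 1536-well plates were pin-tool dosed one day after seeding with one drug alone or with a fixed anchor-drug dose plus five library-drug doses (not always all listed) in √10 steps, then fixed, stained and imaged at 4× after 5 days.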

NCI-H1734 = test system: NCI-H1734
Summary of the method: as §1

UMC-11 = test system: UMC-11
Summary of the method: as §1

H3255 = test system: H3255
Summary of the method: as §1

NCI-H1563 = test system: NCI-H1563
Summary of the method: as §1

SW 900 = test system: SW 900
Summary of the method: as §1

NCI-H2347 = test system: NCI-H2347
Summary of the method: as §1

NCI-H520 = test system: NCI-H520
Summary of the method: as §1

NCI-H2405 = test system: NCI-H2405
Summary of the method: as §1

PC-14 = test system: PC-14
Summary of the method: as §1

201T = test system: 201T
Summary of the method: as §1

NCI-H1793 = test system: NCI-H1793
Summary of the method: as §1

NCI-H2170 = test system: NCI-H2170
Summary of the method: as §1

NCI-H441 = test system: NCI-H441
Summary of the method: as §1

NCI-H1650 = test system: NCI-H1650
Summary of the method: as §1

NCI-H322M = test system: NCI-H322M
Summary of the method: as §1

HCC-15 = test system: HCC-15
Summary of the method: as §1

EPLC-272H = test system: EPLC-272H
Summary of the method: as §1

NCI-H647 = test system: NCI-H647
Summary of the method: as §1

COR-L23 = test system: COR-L23
Summary of the method: as §1

LOU-NH91 = test system: LOU-NH91
Summary of the method: as §1

NCI-H3122 = test system: NCI-H3122
Summary of the method: as §1

SMILES: COc1nc(C)cnc1NS(=O)(=O)c1cccnc1-c1ccc(-c2nnco2)cc1 [Zibotentan] + CCNC(=O)c1noc(-c2cc(C(C)C)c(O)cc2O)c1-c1ccc(CN2CCOCC2)cc1 [Luminespib] (partner 0.01 µM)
- relative viability (NCI-H2023; first compound 0.08 µM): 0.856
- relative viability (NCI-H2023; first compound 0.253 µM): 0.455
- relative viability (NCI-H2023; first compound 0.8 µM): 0.645
- relative viability (NCI-H2023; first compound 2.53 µM): 0.799
- relative viability (NCI-H1734; first compound 0.08 µM): 0.19
- relative viability (NCI-H1734; first compound 0.253 µM): 0.164
- relative viability (NCI-H1734; first compound 0.8 µM): 0.195
- relative viability (NCI-H1734; first compound 2.53 µM): 0.262
- relative viability (UMC-11; first compound 0.08 µM): 1.1
- relative viability (UMC-11; first compound 0.253 µM): 0.974
- relative viability (UMC-11; first compound 0.8 µM): 0.978
- relative viability (UMC-11; first compound 2.53 µM): 0.997
- relative viability (H3255; first compound 0.08 µM): 0.996
- relative viability (H3255; first compound 0.253 µM): 0.839
- relative viability (H3255; first compound 0.8 µM): 0.899
- relative viability (H3255; first compound 2.53 µM): 0.799
- relative viability (NCI-H1563; first compound 0.08 µM): 0.474
- relative viability (NCI-H1563; first compound 0.253 µM): 0.499
- relative viability (NCI-H1563; first compound 0.8 µM): 0.552
- relative viability (NCI-H1563; first compound 2.53 µM): 0.559
- relative viability (SW 900; first compound 0.08 µM): 0.203
- relative viability (SW 900; first compound 0.253 µM): 0.174
- relative viability (SW 900; first compound 0.8 µM): 0.177
- relative viability (SW 900; first compound 2.53 µM): 0.172
- relative viability (NCI-H2347; first compound 0.253 µM): 0.382
- relative viability (NCI-H2347; first compound 0.8 µM): 0.426
- relative viability (NCI-H2347; first compound 2.53 µM): 0.452
- relative viability (NCI-H520; first compound 0.08 µM): 0.206
- relative viability (NCI-H520; first compound 0.253 µM): 0.213
- relative viability (NCI-H520; first compound 0.8 µM): 0.242
- relative viability (NCI-H520; first compound 2.53 µM): 0.164
- relative viability (NCI-H2405; first compound 0.08 µM): 0.703
- relative viability (NCI-H2405; first compound 0.253 µM): 0.541
- relative viability (NCI-H2405; first compound 0.8 µM): 0.774
- relative viability (NCI-H2405; first compound 2.53 µM): 0.8
- relative viability (PC-14; first compound 0.08 µM): 0.135
- relative viability (PC-14; first compound 0.8 µM): 0.151
- relative viability (PC-14; first compound 2.53 µM): 0.128
- relative viability (201T; first compound 0.08 µM): 1.11
- relative viability (201T; first compound 0.253 µM): 1.03
- relative viability (201T; first compound 0.8 µM): 1.14
- relative viability (201T; first compound 2.53 µM): 1.07
- relative viability (NCI-H1793; first compound 0.08 µM): 0.172
- relative viability (NCI-H1793; first compound 0.253 µM): 0.169
- relative viability (NCI-H1793; first compound 0.8 µM): 0.225
- relative viability (NCI-H1793; first compound 2.53 µM): 0.169
- relative viability (NCI-H2170; first compound 0.08 µM): 0.397
- relative viability (NCI-H2170; first compound 0.253 µM): 0.721
- relative viability (NCI-H2170; first compound 0.8 µM): 0.646
- relative viability (NCI-H2170; first compound 2.53 µM): 0.691
- relative viability (NCI-H441; first compound 0.08 µM): 0.41
- relative viability (NCI-H441; first compound 0.253 µM): 0.255
- relative viability (NCI-H441; first compound 0.8 µM): 0.345
- relative viability (NCI-H441; first compound 2.53 µM): 0.368
- relative viability (NCI-H1650; first compound 0.08 µM): 0.177
- relative viability (NCI-H1650; first compound 0.8 µM): 0.204
- relative viability (NCI-H1650; first compound 2.53 µM): 0.195
- relative viability (NCI-H322M; first compound 0.08 µM): 0.876
- relative viability (NCI-H322M; first compound 0.253 µM): 0.474
- relative viability (NCI-H322M; first compound 0.8 µM): 0.897
- relative viability (NCI-H322M; first compound 2.53 µM): 0.918
- relative viability (HCC-15; first compound 0.08 µM): 0.244
- relative viability (HCC-15; first compound 0.253 µM): 0.114
- relative viability (HCC-15; first compound 0.8 µM): 0.4
- relative viability (HCC-15; first compound 2.53 µM): 0.365
- relative viability (EPLC-272H; first compound 0.08 µM): 0.234
- relative viability (EPLC-272H; first compound 0.253 µM): 0.376
- relative viability (EPLC-272H; first compound 0.8 µM): 0.272
- relative viability (EPLC-272H; first compound 2.53 µM): 0.254
- relative viability (NCI-H647; first compound 0.08 µM): 0.244
- relative viability (NCI-H647; first compound 0.253 µM): 0.16
- relative viability (NCI-H647; first compound 0.8 µM): 0.185
- relative viability (NCI-H647; first compound 2.53 µM): 0.164
- relative viability (COR-L23; first compound 0.08 µM): 0.879
- relative viability (COR-L23; first compound 0.253 µM): 0.656
- relative viability (COR-L23; first compound 0.8 µM): 0.719
- relative viability (COR-L23; first compound 2.53 µM): 0.667
- relative viability (LOU-NH91; first compound 0.08 µM): 0.33
- relative viability (LOU-NH91; first compound 0.253 µM): 0.315
- relative viability (LOU-NH91; first compound 0.8 µM): 0.382
- relative viability (LOU-NH91; first compound 2.53 µM): 0.364
- relative viability (NCI-H3122; first compound 0.08 µM): 0.0904
- relative viability (NCI-H3122; first compound 0.253 µM): 0.112
- relative viability (NCI-H3122; first compound 0.8 µM): 0.0537
- relative viability (NCI-H3122; first compound 2.53 µM): 0.104
